The source of these data is patent US20040234480A1, “Use of oligomeric proanthrocyanidins” (priority 2001, published 2004).

For orientation: EC50 means the midpoint of the concentration-response curve.

Assay [1] can be described thus: Method A: diphenylpicrylhydrazyl free radical, optical density at 513 nm. The settings on record: DPPH radical. The source says: Method A In a first method, use was made of diphenylpicrylhydrazyl (DPPH^o), a relatively stable free radical which produces a purple-colored solution. The parameter determined was the optical density (DO) at 513 nm. The results are summarized in Table 1; in each case the EC50 values are given in % (w/v).
A general note: DPPH is a stable violet radical that fades when it is reduced.

Assay [2] has as its target Xanthin oxidase (Homo sapiens, UniProt P47989). As to the kind of experiment: Method D: Xanthin oxidase, superoxide anion by NBT reduction, optical density at 490 nm. In kind it is biochemical. From the text:
Method D Xanthin oxidase is an enzyme which is released as a result of oxidative stress and catabolizes the degradation of the purine bases adenine and guanine into […] and superoxide anions. The latter dismutate spontaneously or in the presence of superoxide dismutase into hydrogen peroxide and oxygen.
The amount of superoxide anion can be determined by NBT reduction via the optical density at 490 nm. It was investigated whether fewer superoxide anions are generated or more anions are destroyed in the presence of the test substances.
(§1) The results are summarized in Table 1; in each case the EC50 values are given in % (w/v).

A short description of assay [3]: Method B: hydroxyl radicals from hydrogen peroxide with iron(II) ions and EDTA, deoxyribose oxidation. The source says:
Method B In the presence of iron(II)ions and EDTA, hydroxyl radicals were liberated from hydrogen peroxide and used for the oxidation of deoxyribose. The oxidation product forms a pink-colored compound with thiobarbituric acid. Its concentration corresponds to the optical density at 532 nm. It was investigated whether less deoxyribose is oxidized, i.e. fewer free radicals are liberated, in the presence of the test products. The results are summarized in Table 1; in each case the EC50 values are given in % (w/v).

Assay [4] can be described thus: Method C: deoxyribose oxidation in the absence of EDTA (inactive iron complexes).
Source text: as §1

Sequence of Xanthin oxidase (P47989 whole entry): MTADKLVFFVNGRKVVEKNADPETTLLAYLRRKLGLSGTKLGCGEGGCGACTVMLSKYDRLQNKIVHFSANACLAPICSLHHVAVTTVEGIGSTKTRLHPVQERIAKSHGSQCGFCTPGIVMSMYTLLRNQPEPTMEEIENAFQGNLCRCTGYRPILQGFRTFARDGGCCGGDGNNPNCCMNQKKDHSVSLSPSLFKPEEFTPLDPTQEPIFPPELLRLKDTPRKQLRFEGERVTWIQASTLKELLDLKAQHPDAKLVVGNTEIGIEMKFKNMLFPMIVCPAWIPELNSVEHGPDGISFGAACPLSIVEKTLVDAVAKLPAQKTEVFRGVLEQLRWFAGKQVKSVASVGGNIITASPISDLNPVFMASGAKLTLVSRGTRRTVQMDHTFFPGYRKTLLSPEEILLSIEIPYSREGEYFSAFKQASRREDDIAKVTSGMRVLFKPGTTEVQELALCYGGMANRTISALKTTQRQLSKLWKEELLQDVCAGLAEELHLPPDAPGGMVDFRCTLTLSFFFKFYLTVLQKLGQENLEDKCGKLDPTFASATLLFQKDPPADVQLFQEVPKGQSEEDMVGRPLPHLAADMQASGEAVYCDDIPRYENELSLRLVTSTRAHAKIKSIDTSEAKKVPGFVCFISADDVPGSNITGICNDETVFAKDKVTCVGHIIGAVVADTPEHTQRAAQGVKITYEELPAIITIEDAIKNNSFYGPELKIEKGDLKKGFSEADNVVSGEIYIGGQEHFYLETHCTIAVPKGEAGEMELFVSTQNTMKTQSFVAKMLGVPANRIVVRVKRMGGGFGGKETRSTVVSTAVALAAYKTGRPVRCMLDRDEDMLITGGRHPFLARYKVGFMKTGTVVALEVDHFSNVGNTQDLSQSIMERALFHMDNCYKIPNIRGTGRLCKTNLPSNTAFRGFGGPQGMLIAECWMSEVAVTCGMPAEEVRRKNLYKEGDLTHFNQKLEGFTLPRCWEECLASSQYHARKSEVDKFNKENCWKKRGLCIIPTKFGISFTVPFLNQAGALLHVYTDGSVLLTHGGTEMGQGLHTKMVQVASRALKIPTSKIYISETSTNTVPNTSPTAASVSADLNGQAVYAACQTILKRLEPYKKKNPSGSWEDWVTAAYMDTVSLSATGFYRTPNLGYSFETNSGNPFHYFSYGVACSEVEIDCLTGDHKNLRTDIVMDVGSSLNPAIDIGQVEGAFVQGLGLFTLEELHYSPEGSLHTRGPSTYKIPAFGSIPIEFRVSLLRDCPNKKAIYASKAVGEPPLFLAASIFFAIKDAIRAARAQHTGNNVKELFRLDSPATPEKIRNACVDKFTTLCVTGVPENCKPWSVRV

Consider `O=C1O[C@H]([C@@H](O)CO)C(O)=C1O` [Ascorbic acid], for which the “EC50, test method A” value in assay [1] is 0.0013 % (w/v). The EC50 in assay [2] (read-out: EC50, test method D (converted)) was 33.6 mM. In addition, the “EC50, test method B” value in assay [3] is on record as 0.2607% (w/v). In assay [4], the “EC50, test method C” value is 0.9% (w/v).
With Tocopherol, in assay [1], the “EC50, test method A” value is recorded as 0.0067 % (w/v). Moreover, the “EC50, test method D” value in assay [2] was “no”.
